# According to publication PMC5774841, “High-level production and purification in a functional state of an extrasynaptic gamma-aminobutyric acid type A receptor containing α4β3δ subunits” (PLoS ONE, 2018):
# Where two headings read alike, the source gives them in different places.
# Tests used:
# [1] = molecular target: T1, α4β3N-Flag-δ GABAA receptor reconstituted into CHAPS/lipid micelles (Homo sapiens, UniProt O14764+P28472+P48169); test: [3H]muscimol binding to purified receptor reconstituted into CHAPS/lipid micelles
# T1 construct: made in house; DDM solubilization, anti-Flag beads, elution with Flag peptide into CHAPS/lipid
# T1 sequence (P48169 36-554): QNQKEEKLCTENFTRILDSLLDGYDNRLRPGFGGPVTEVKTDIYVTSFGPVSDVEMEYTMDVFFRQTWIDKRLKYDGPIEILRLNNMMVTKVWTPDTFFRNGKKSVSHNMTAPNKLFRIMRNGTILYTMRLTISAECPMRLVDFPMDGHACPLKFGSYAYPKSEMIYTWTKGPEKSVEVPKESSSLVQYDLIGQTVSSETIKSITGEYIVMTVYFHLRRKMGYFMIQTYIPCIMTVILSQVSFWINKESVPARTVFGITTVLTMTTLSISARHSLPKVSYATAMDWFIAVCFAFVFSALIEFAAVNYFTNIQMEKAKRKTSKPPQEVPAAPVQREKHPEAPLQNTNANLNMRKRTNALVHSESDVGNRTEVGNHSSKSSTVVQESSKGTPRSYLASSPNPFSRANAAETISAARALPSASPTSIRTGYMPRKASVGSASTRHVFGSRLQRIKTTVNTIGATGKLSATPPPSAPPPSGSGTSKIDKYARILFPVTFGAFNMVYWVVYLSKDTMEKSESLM
# T1 sequence (P28472 26-473 isoform P28472-2 limits assumed): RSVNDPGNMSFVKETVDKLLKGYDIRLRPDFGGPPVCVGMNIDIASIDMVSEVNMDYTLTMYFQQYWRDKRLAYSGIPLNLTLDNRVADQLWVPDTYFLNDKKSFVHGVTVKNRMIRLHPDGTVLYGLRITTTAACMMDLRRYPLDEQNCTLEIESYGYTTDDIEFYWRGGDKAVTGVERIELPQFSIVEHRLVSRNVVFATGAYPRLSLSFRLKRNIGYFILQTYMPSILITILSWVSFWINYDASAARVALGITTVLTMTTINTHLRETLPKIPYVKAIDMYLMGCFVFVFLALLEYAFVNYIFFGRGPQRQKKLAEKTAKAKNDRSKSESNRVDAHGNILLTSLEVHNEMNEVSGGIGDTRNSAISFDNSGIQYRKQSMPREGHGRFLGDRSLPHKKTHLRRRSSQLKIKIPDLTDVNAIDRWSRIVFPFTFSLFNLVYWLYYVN
# T1 sequence (O14764 25-452): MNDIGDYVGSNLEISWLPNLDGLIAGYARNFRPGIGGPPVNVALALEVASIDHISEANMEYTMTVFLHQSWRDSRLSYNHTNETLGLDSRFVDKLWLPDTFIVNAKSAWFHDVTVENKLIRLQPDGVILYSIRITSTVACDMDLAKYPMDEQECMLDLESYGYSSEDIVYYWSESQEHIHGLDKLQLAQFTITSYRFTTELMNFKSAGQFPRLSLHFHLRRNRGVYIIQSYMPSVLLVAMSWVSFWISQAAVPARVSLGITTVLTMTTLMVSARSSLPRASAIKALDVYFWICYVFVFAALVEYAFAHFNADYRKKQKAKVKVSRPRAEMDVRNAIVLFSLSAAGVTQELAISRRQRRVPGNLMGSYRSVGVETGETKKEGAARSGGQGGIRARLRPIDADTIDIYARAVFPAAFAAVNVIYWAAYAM
# Experimental: Cells with inducible expression of N-Flag-α4β3 and α4β3N-Flag-δ were induced with tetracycline (1 μg/ml final concentration, Life Technologies) and 5 mM sodium butyrate (Sigma-Aldrich, St. Louis, MO) for 24 hours and harvested in 10 ml per ten 15 cm–dishes of 10 mM HEPES, 1 mM EDTA (buffer A) freshly supplemented with protease inhibitors and 1 mM PMSF (final concentration) at 4°C with all subsequent purification procedures carried out at 4°C. Cells were homogenized with three cycles of 10 s each separated by 30 s intervals (Ultra Turrax T25, IKA Works, Wilmington, NC), followed by 20 strokes in Kontes-Duval glass tissue grinder. Homogenate was centrifuged at 43,000 x g for 30 min at 4°C and the pellet was resuspended in the buffer A and the entire procedure repeated. The resulting pellet was resuspended in the buffer A and a final homogenization carried out by aspiration with a 21-gauge needle and expulsed through 27-gauge needle. Concentration of total protein was assessed with the Pierce BCA protein assay kit (Pierce, Rockford, IL). Under constant stirring, the membrane fraction was solubilized over 30 min by dropwise addition of 30 mM DDM (Anatrace, Maumee, OH) in buffer B (50 mM Tris/HCl, 150 mM NaCl, 2 mM CaCl2, 5 mM KCl, 5 mM MgCl2, 4 mM EDTA, pH 7.5) and 10% glycerol, supplemented with protease inhibitors and 1 mM PMSF, with the volume adjusted to produce an effective protein concentration of 1 mg/ml. Following an additional 2 hours of solubilization, the solution was centrifuged at 45,000 x g for 30 min at 4°C. Insoluble material in the pellet was discarded and the supernatant was stored in liquid nitrogen overnight.
# After washing once with buffer B, 2 ml of Flag beads (Sigma-Aldrich) were pre-treated overnight at 4°C on polypropylene columns (Qiagen, Hilden, Germany) with 1.5 ml of 10 mg/ml poly-d-Lysine hydrobromide with gentle agitation. On the following day, beads were washed three times with six 2–ml volumes of buffer B with 10% glycerol and incubated with solubilized membrane fractions with gentle agitation for 2 hours. Once transferred back into propylene columns, beads were washed once with wash buffer (17 mM CHAPS, 8.5 mM asolectin in buffer B with 10% glycerol, homogenized with glass grinder and sonicated for 10 min), equilibrated with the same buffer for 1 hour with agitation and washed again. Two more washes with elution buffer (5 mM CHAPS, 200 μM asolectin in buffer B with 10% glycerol, prepared as with wash buffer) were performed prior to elution of receptors by incubation with two x 2–ml of elution buffer supplemented with 0.15 mg/ml of Flag peptide (Sigma-Aldrich) for 2 hours with gentle rocking (elution 1). Second elution (elution 2) and another overnight incubation with 2–ml (elution 3) followed.
# […] […] […] […] The curves were fitted by nonlinear least squares with weighting by standard deviation. These yielded apparent dissociation constants of 9.2 ± 0.6 and 35 ± 12 nM, respectively. The Bmax of the membranes was 22.6 ± 0.5 pmol/mg and for reconstituted receptors in micelles was 19 ± 3 pmol/mL. The Hill coefficients differed little from one (1.07 ± 0.3 and 0.90 ± 0.05 respectively).
# [2] = molecular target: T2, α4β3N-Flag-δ GABAA receptor in native membranes (Homo sapiens, UniProt O14764+P28472+P48169); test: [3H]muscimol binding (filtration assay) to cell membranes
# T2 construct: expressed in transfected cells
# T2 sequence (P48169 36-554): as the sequence (P48169 36-554) above
# T2 sequence (P28472 26-473 isoform P28472-2 limits assumed): as the sequence (P28472 26-473 isoform P28472-2 limits assumed) above
# T2 sequence (O14764 25-452): as the sequence (O14764 25-452) above
# Experimental: Radioactive ligand binding assays were carried out as previously described, with the exception that GABAAR binding sites were assayed at 250 nM [^3H]muscimol because of this receptor’s higher affinity.
# (§1) Statistical analysis for electrophysiology was done using GraphPad Prism 6. […] Analysis of the [^3H]muscimol binding was carried out using Igor Pro 7 (WaveMetrics). For Western blotting, the ratio of the signal intensity of individual antibodies for each sample was determined. Pooled (weighted) mean and standard deviation was determined for each receptor and p value determined by two-tailed unpaired Student’s t-test, using GraphPad QuickCalcs software.
# Fig 3 The binding isotherm of the agonist [^3H]muscimol to the α4β3N-Flag-δ GABAA receptor in native membranes and reconstituted into CHAPS/lipid micelles. Binding curves of [^3H]muscimol to α4β3N–Flag–δ GABAΑRs, both, in cell membranes (pmol/mg membrane protein) and after purification and reconstitution into micelles of 5 mM CHAPS and 200 μM DOPC:DOPS:Cholesterol in mole ratio 52:15:33 (pmol/mL). […] The displaceable binding and its standard deviation was determined by subtracting these two values and propagating errors at each total muscimol concentration. The curves were fitted by nonlinear least squares with weighting by standard deviation. These yielded apparent dissociation constants of 9.2 ± 0.6 and 35 ± 12 nM, respectively. The Bmax of the membranes was 22.6 ± 0.5 pmol/mg and for reconstituted receptors in micelles was 19 ± 3 pmol/mL. The Hill coefficients differed little from one (1.07 ± 0.3 and 0.90 ± 0.05 respectively).
# α4β3N–Flag–δ GABAAR = molecular target: T3, α4β3N–Flag–δ GABAAR (Homo sapiens, UniProt O14764+P28472+P48169); test: Whole-cell patch-clamp of GABA-elicited currents in the induced α4β3N-Flag-δ cell line; format: cell-based; conditions: for enhancement of maximum GABA elicited currents: drug 10 μM co-applied for 4 s, notch protocol
# T3 construct: expressed in transfected cells
# T3 sequence (P48169 36-554): as the sequence (P48169 36-554) above
# T3 sequence (P28472 26-473 isoform P28472-2 limits assumed): as the sequence (P28472 26-473 isoform P28472-2 limits assumed) above
# T3 sequence (O14764 25-452): as the sequence (O14764 25-452) above
# Experimental: HEK 293 cells stably expressing tetracycline inducible α4β3N-Flag-δ or N-Flag-α4β3 GABAA receptors were cultured on glass coverslips and induced with tetracycline (2μg/ml) 24 hours before recordings. The coverslips were placed in a recording chamber and perfused with the bath solution. Cells were voltage clamped at -50 mV using the patch clamp amplifier (Axopatch 200A, Molecular Devices, Sunnyvale, CA). GABAA receptor-mediated chloride currents from HEK cells were recorded using the whole-cell configuration of patch-clamp electrophysiology. Data was acquired using Clampex version 8.1 (Molecular Devices), digitized at 10 kHz and filtered at 5 kHz. Current traces were analyzed using Clampfit version 9 (Molecular Devices). Series resistance ranged from 0.5–4 MΩ and cell capacitances from 9–18 pF. Membrane-capacitance and series-resistance were compensated electronically by > 85% with a lag of 10 μ seconds. Drugs were delivered via a multichannel superfusion pipette coupled to a piezoelectric elements that switched superfusion solution in < 1 millisecond. The recording chamber was continuously perfused with the bath solution in mM: 145 NaCl, 5 KCl, 10 HEPES, 2 CaCl2, and 1 MgCl2, 10 glucose, pH 7.4 (pH adjusted with N-methyl glucosamine). The pipette solution for whole-cell recordings contained in mM: 140 KCl, 10 HEPES, 1 EGTA and 2 MgCl2 at pH 7.3 (pH adjusted with KOH). Open pipette resistances ranged from 1.6–3 M. Errors are standard deviation from at least three replicas.
# as §1
# N–Flag–α4β3 receptors = molecular target: T4, N–Flag–α4β3 receptors (Homo sapiens, UniProt P28472+P48169); test: Whole-cell patch-clamp of GABA-elicited currents in the control N-Flag-α4β3 cell line; format: cell-based; conditions: drug 10 μM co-applied for 4 s, 10 mM GABA, notch protocol
# T4 construct: expressed in transfected cells
# T4 sequence (P48169 36-554): as the sequence (P48169 36-554) above
# T4 sequence (P28472 26-473 isoform P28472-2 limits assumed): as the sequence (P28472 26-473 isoform P28472-2 limits assumed) above
# Experimental: HEK 293 cells stably expressing tetracycline inducible α4β3N-Flag-δ or N-Flag-α4β3 GABAA receptors were cultured on glass coverslips and induced with tetracycline (2μg/ml) 24 hours before recordings. The coverslips were placed in a recording chamber and perfused with the bath solution. Cells were voltage clamped at -50 mV using the patch clamp amplifier (Axopatch 200A, Molecular Devices, Sunnyvale, CA). GABAA receptor-mediated chloride currents from HEK cells were recorded using the whole-cell configuration of patch-clamp electrophysiology. Data was acquired using Clampex version 8.1 (Molecular Devices), digitized at 10 kHz and filtered at 5 kHz. Current traces were analyzed using Clampfit version 9 (Molecular Devices). Series resistance ranged from 0.5–4 MΩ and cell capacitances from 9–18 pF. Membrane-capacitance and series-resistance were compensated electronically by > 85% with a lag of 10 μ seconds. […]
# Statistical analysis for electrophysiology was done using GraphPad Prism 6. […] For Western blotting, the ratio of the signal intensity of individual antibodies for each sample was determined. Pooled (weighted) mean and standard deviation was determined for each receptor and p value determined by two-tailed unpaired Student’s t-test, using GraphPad QuickCalcs software.
# α1β3δ GABAARs = test system: α1β3δ GABAARs; design: method as in PMID 27493204; conditions: cited from earlier work; for degree of desensitization: in 4 seconds
# α4β3γ2 receptors = conditions: cited from earlier work
# α4β3δ receptors = conditions: cited from earlier work
# [3] = test system: concatenated subunits β3-α1-δ/β3-α1; conditions: cited from earlier work
# [4] = 2 nM [3H]muscimol, reconstituted
# [5] = after 8.5 ms pulse of 100 μM GABA, two exponentials
# [6] = linear fit of activation rate up to ~10 μM GABA
# [7] = CHAPS/DOPC:DOPS:Cholesterol micelles
compound,measurement,setting,value
O=C(Nc1c(-c2cccs2)nc2ccccn12)c1ccc(Cl)cc1 [DS2],EC50,"[1]; 2 nM [3H]muscimol, CHAPS/PC:PS:Cholesterol micelles, read-out: EC50 of modulation of [3H]muscimol binding",2300 ± 800 nM
same,Hill coefficient of modulation of [3H]muscimol binding,[1]; [4],1.2 ± 0.5
same,maximum modulation of [3H]muscimol binding,[1]; [4],132 ± 4%
same,enhancement of displaceable [3H]muscimol binding,"[1]; DS2 30 μM, [3H]muscimol 2 nM, CHAPS/lipid micelles",128 ± 11%
same,Hill coefficient of modulation of [3H]muscimol binding,"[2]; 2 nM [3H]muscimol, membranes",0.9 ± 0.2
same,maximum modulation of [3H]muscimol binding,"[2]; 2 nM [3H]muscimol, membranes",139 ± 4%
same,EC50,"[2]; 2 nM [3H]muscimol, native membranes, read-out: EC50 of modulation of [3H]muscimol binding",2000 ± 700 nM
same,enhancement of displaceable [3H]muscimol binding,"[2]; DS2 30 μM, [3H]muscimol 2 nM, membranes",142 ± 12%
same,enhancement of maximum GABA elicited currents,α4β3N–Flag–δ GABAAR; 10 mM GABA,230 ± 63%
same,enhancement of maximum GABA elicited currents,N–Flag–α4β3 receptors,12 ± 7%
"NCCCC(=O)O [GABA, γ-aminobutyric acid]",10–90% rise times,"α1β3δ GABAARs; 1 mM GABA, depending on the construct ratio",4 to 22 ms
same,deactivation rate (time),α1β3δ GABAARs; construct ratio 1:1:0.3,~ 170 ms
same,degree of desensitization,α1β3δ GABAARs; much lower transfection ratios,40–70%
same,degree of desensitization,α1β3δ GABAARs; transfection ratios similar to the authors',little desensitization
same,deactivation rate (time),α1β3δ GABAARs; varied with ratio of constructs transfected,100 to 200 ms
same,k+1 apparent forward GABA binding rate,α4β3γ2 receptors,6 x 10^6 s^–1M^–1
same,activation time constant τ,α4β3N–Flag–δ GABAAR; 0.1 μM GABA,165 ± 20 ms
same,activation time constant τ,α4β3N–Flag–δ GABAAR; 100 μM GABA,6 ± 1 ms
same,fraction of available channels opened (efficacy of GABA),"α4β3N–Flag–δ GABAAR; 10 mM GABA, assumes 10 mM GABA + 10 μM etomidate opens 100% of channels",17 ± 6%
same,desensitization time constant τ,"α4β3N–Flag–δ GABAAR; 8-sec exposure to GABA 1–100 μM, all concentrations averaged",2.6 ± 0.9 s
same,fraction of total current decay amplitude occupied by fastest phase,α4β3N–Flag–δ GABAAR; after 8.5 ms pulse of 100 μM GABA,76 ± 12%
same,"deactivation time constant, fastest phase",α4β3N–Flag–δ GABAAR; [5],175 ± 50 ms
same,"deactivation time constant, slow phase",α4β3N–Flag–δ GABAAR; [5],1100 ± 440 ms
same,degree of desensitization,α4β3N–Flag–δ GABAAR; in 4 seconds at 100 μM GABA,~ 70%
same,k+1 apparent forward GABA binding rate,α4β3N–Flag–δ GABAAR; [6],5.7 ± 0.2 x 10^6 s^–1M^–1
same,k–1 apparent reverse GABA binding rate,α4β3N–Flag–δ GABAAR; [6],5 ± 1 s^–1
same,Hill coefficient of GABA concentration-response curve,α4β3N–Flag–δ GABAAR; peak currents normalized to 10 mM GABA,1.5 ± 0.24
same,desensitization time constant τ,α4β3δ receptors; 100 μM GABA,4.8 s
same,rise time,α4β3δ receptors; 100 μM GABA,~ 100 ms
same,deactivation time constant,α4β3δ receptors; lower time resolution perfusion system,~ 400 ms
same,desensitization time constant,[3]; 1 mM GABA,4.7 s
same,degree of desensitization,[3]; after 4 s at 1 mM GABA,~ 40%
same,deactivation time constant,[3],~ 50 ms
NCc1cc(=O)[nH]o1 [[^3H]muscimol],Kd,"[1]; 5 mM CHAPS and 200 μM DOPC:DOPS:Cholesterol 52:15:33 micelles, read-out: apparent dissociation constant",35 ± 12 nM
same,Bmax,[1]; [7],19 ± 3 pmol/mL
same,Hill coefficient of binding isotherm,[1]; [7],0.90 ± 0.05
same,Bmax (sites per mg of membrane protein),[2]; cell membranes,22.6 ± 0.5 pmol/mg
same,apparent affinity relative to α1β3γ2 GABAAR cell line,"[2]; higher than in previously developed α1β3γ2 cell line (refs 13, 26)",5 fold
same,EC50,[2]; read-out: apparent dissociation constant (EC50 of binding isotherm),9.2 ± 0.6 nM
CCOC(=O)c1cncn1[C@H](C)c1ccccc1 [etomidate],enhancement of maximum GABA elicited currents,α4β3N–Flag–δ GABAAR; 10 mM GABA,540 ± 235%
same,enhancement of maximum GABA elicited currents,N–Flag–α4β3 receptors,490 ± 84%
picrotoxin,fraction of spontaneously open receptors (picrotoxin-inhibited current),"α4β3N–Flag–δ GABAAR; 2 mM picrotoxin for 8 s, relative to current with 10 mM GABA + 10 μM etomidate",about 3.2 ± 0.6%
